The source of these data is patent US8217073B2, “Pyrrole derivatives as therapeutic compounds” (Myrexis, Inc., priority 2005, dated 2012).

Read-outs that look alike come from different tables or passages of the source.

Experiment [1] relates to Aβ42 secretion. The experiment in a line: Aβ42 secretion by H4 cells expressing APP695, sandwich ELISA. The class given is cell-based, human. Conditions: medium collected at 24 or 48 hours, several numbers = independent sets of assays; for IC50: about 1 μM to about 100 μM. The protocol:
(§1) The present invention provides compositions and methods for lowering Aβ42 levels. To test whether compounds and compositions are capable of modulating Aβ levels in cultured cells, sandwich enzyme-linked immunosorbent assays (ELISAs) are employed to measure secreted Aβ (Aβ42 and/or Aβ40 levels). In this example, H4 cells expressing wide type APP695 are seeded at 200,000 cells per well in 6 well plates, and incubated at 37° C. with 5% CO2 overnight. Cells are treated with 1.5 ml medium containing vehicle (DMSO) or a test compound at 1.25 μM, 2.5 μM, 5.0 μM and 10.0 μM (as well as other concentration if desirable) for 24 hours or 48 hours. The supernatant from treated cells is collected into eppendorf tubes and frozen at −80° C. for future analysis.
(§2) The amyloid peptide standard is reconstituted and frozen samples are thawed. The samples and standards are diluted with appropriate diluents and the plate is washed 4 times with Working Wash Buffer and patted dry on a paper towel. 100 μL per well of peptide standards, controls, and dilutions of samples to be analyzed is added. The plate is incubated for 2 hours while shaking on an orbital plate shaker at RT. The plate is then washed 4 times with Working Wash Buffer and patted dry on a paper towel. Detection Antibody Solution is poured into a reservoir and 100 μL/well of Detection Antibody Solution is immediately added to the plate. The plate is incubated at RT for 2 hours while shaking and then washed four times with Working Wash Buffer and patted dry on a paper towel. Secondary Antibody Solution is then poured into a reservoir and 100 μL/well of Secondary Antibody Solution is immediately added to the plate. The plate is incubated at RT for 2 hours with shaking, washed 5 times with Working Wash Buffer, and patted dry on a paper towel.
(§3) 100 μL of stabilized chromogen is added to each well and the liquid in the wells begins to turn blue. The plate is incubated for 30 minutes at room temperature and in the dark. 100 μL of stop solution is added to each well and the plate is tapped gently to mix resulting in a change of solution color from blue to yellow. The absorbance of each well is read at 450 nm having blanked the plate reader against a chromogen blank composed of 100 μL each of stabilized chromogen and stop solution. The plate is read within 2 hours of adding the stop solution. The absorbance of the standards is plotted against the standard concentration and the concentrations of unknown samples and controls are calculated.
(§4) The present invention provides compositions and methods for lowering Aβ42 levels. To test whether compounds and compositions are capable of modulating Aβ levels, sandwich enzyme-linked immunosorbent assays (ELISAs) is employed to measure secreted Aβ42 and/or Aβ40 levels. In this example, H4 cells expressing wide type APP695 are seeded at 200,000 cells per well in 6 well plates, and incubated at 37° C. with 5% CO2 overnight. Cells are treated with 1.5 mL medium containing vehicle (DMSO) or a test compound at 1.25 μM, 2.5 μM, 5.0 μM and 10.0 μM concentration for 24 hours or 48 hours. The supernatant from treated cells is collected into eppendorf tubes and frozen at −80° C. for future analysis.
(§5) 130 μL per well of samples, standards, and blanks is added to a 96-well polypropylene plate. […] of samples, standards, and blanks from the polypropylene plate is added to the antibody-coated plates. The strip-holder with the appropriate number of strips is applied to the antibody-coated plates and the strips are covered with an adhesive sealer. The plate is then incubated 3 hours at room temperature while shaking on an orbital plate shaker.
(§6) The first antibody solution is prepared with Conjugate Diluent 1 at 1:100 ratio. Each well of the antibody-coated plates is washed 5 times with 400 μL washing solution and 100 μL of the prepared first antibody solution is added to each well. […]
On the technique in general: ELISA stands for enzyme-linked immunosorbent assay.

Experiment [2] deals with Aβ40 secretion. Nature of the experiment: Aβ40 secretion by H4 cells expressing APP695, sandwich ELISA. The class given is cell-based, human. The following applies: medium collected at 24 or 48 hours, several numbers = independent sets of assays; for IC50: about 1 μM to about 100 μM. The procedure: as §1, §2, §3, §4, §5, §6
The test system of experiment [3] is Aβ42. Conditions: CHO cells; cited from earlier work.
Experiment [4] relates to COX. The following applies: cited from earlier work.
Experiment [5] has as its system Aβ42. Conditions: transgenic mouse model; cited from earlier work.
Where [6] appears, read: Homo sapiens, test compound 100 μM vs DMSO control.
The mark [7] stands for this setting: test compound 100 μM vs DMSO control.

As a reminder, the IC50 is the midpoint of a concentration-inhibition curve. A higher IC50 goes with a need for much substance. In general, inhibition refers to how much of the control response was suppressed. The low end stands for a response near the control, the high end for a response far below the control. Consider `CC(C)(C)Cc1c(-c2ccccc2)cc(-c2ccccc2)n1-c1ccc(CCCC(=O)O)cc1` [Compound 38, 4-{4-[2-(2,2-Dimethyl-propyl)-3,5-diphenyl-pyrrol-1-yl]-phenyl}-butyric acid], for which the IC50 in experiment [1] (Homo sapiens) stood at 10 µM; in experiment [1] it was 7 µM; in experiment [2] (Homo sapiens) it was 63 µM; in experiment [2], 37 µM. In addition, the inhibition at 100 µM in experiment [1] (setting [6]) was found to be 94%; in experiment [2] (setting [6]), 88%. In addition, in experiment [1] (setting [7]), the “% Inhibition of Aβ42 Secretion @ 100 μM” value worked out at 101%. Also, in experiment [2] (setting [7]), the “% Inhibition of Aβ40 Secretion @ 100 μM” value was determined as 104%.

For `Cc1c(-c2ccccc2)cc(-c2ccccc2)n1-c1ccc(C(=O)O)cc1` [Compound 39, 4-(2-Methyl-3,5-diphenyl-pyrrol-1-yl)-benzoic acid], the IC50 in experiment [1] (Homo sapiens) worked out at 50 µM; in experiment [2] (Homo sapiens), 54 µM. Further, the inhibition at 100 µM in experiment [1] (setting [6]) came to 86%; in experiment [2] (setting [6]) it was 92%.

With `C[C@@H](C(=O)O)c1ccc(-c2ccccc2)c(F)c1` [R-Flurbiprofen], the Aβ42 lowering entry in experiment [3] and in experiment [5] was “lower Aβ42” in each case. Moreover, the “inhibition of COX activity” value in experiment [4] is recorded as “negligibly inhibits COX activity”.
